Patent US20260001928A1 (CORTERIA PHARMACEUTICALS, priority 2022, published 2026)
*1 amine or outer side, *2 acyl side, *3 side chain or, on linkers, in order; H or OH if unused. Where a SMILES comes first, the peptide text is derived from it. Side-chain parts run from the residue outwards. [ ]: non-standard residue; d: D form. The star is where a group is joined. C20 diacid = O=C(O)CCCCCCCCCCCCCCCCCCC(=O)*; C18 diacid = O=C(O)CCCCCCCCCCCCCCCCC(=O)*; γGlu = O=C(O)[C@H](CCC(=O)[*:2])N[*:1]; NMeI = CC[C@H](C)[C@H](NC)C(=O)O; αMeL = CC(C)C[C@](C)(N)C(=O)O; AEEA = NCCOCCOCC(=O)O; Aib = CC(C)(N)C(=O)O

Columns and labels:
[1] = Pharmacokinetics in male Sprague Dawley rats after subcutaneous administration; type: in vivo; settings: plasma, rat
Sprague Dawley rats = experiment: Effect on systolic blood pressure, telemetry in Sprague Dawley rats; type: in vivo, rat; settings: 0.1 mg/kg SC; for Systolic blood pressure (Mean) % change from baseline, 8 h / Systolic blood pressure (Mean) % change from baseline, 12 h / Systolic blood pressure (Mean) % change from baseline, 24 h: n=2; for Duration of action: last time point with an effect on BP still observed
Method in brief: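 Values are % change from a 1 h pre-dose baseline in systolic pressure, tracked by telemetry for up to 48 hours after a single 0.1 mg/kg subcutaneous dose. Rats (Sprague Dawley, n=2 per peptide) carried aortic catheters and recovered at least 10 days post-surgery; duration of action marks the last time point still showing an effect.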

human CRF2a receptor = target: T1, human CRF2a receptor (Homo sapiens, UniProt Q13324); experiment: Activity at human CRF2a receptor, cAMP functional assay in TeloHEAC cells; type: cell-based; settings: TeloHEAC cells stably expressing human CRF2a receptor, relative to urocortin 2 (100 nM = 100%)
T1 construct: expressed in transfected cells; host or cells: TeloHEAC cells
T1 sequence (Q13324 1-411): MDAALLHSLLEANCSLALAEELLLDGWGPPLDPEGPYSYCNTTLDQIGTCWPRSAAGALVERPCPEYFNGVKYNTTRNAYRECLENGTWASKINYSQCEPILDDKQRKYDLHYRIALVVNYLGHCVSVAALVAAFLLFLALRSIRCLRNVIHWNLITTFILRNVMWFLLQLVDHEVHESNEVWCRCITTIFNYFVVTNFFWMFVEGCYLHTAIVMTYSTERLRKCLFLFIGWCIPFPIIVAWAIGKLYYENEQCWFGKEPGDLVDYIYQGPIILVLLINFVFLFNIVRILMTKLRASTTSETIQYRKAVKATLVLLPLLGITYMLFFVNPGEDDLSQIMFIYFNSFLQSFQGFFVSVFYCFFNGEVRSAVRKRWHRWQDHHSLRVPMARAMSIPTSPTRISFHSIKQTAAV
Method in brief: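 TeloHEAC cells stably expressing human CRF2a (10000 cells/well, suspended in HBSS/20 mM HEPES with 2 mM IBMX) were exposed to compounds for 30 min at 37 °C. cAMP was read as the 665/620 nm fluorescence ratio after 1 h at room temperature. EC50 was derived relative to 100 nM urocortin 2, set as 100%.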

[2] = Chemical stability in buffer (pH 7.4 / pH 4.5), % purity loss; type: physicochemical; settings: 40° C. vs 5° C., 14 or 28 days; for Buffer stability pH 7.4 % purity loss: 100 mM phosphate buffer pH 7.4; for Buffer stability pH 4.5 % purity loss: 100 mM acetate buffer pH 4.5
Method in brief: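 LC-UV gave % loss after 14 or 28 days of storage at 5 °C or 40 °C. Samples were diluted supernatants from compound incubated 1 h at room temperature at 10 mg/mL target, in 100 mM acetate pH 4.5 or 100 mM phosphate pH 7.4.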

[3] = In vitro plasma stability, rat plasma; type: in vitro ADME; set-up: remaining at 2 h: dose or concentration left out as unconfirmed; settings: Rat PLM, 37° C.
[4] = In vitro subcutaneous tissue supernatant (SCts) stability and metabolite identification, rat; type: in vitro ADME; set-up: remaining at 2 h: dose or concentration left out as unconfirmed; settings: male, Sprague Dawley; rat subcutaneous tissue supernatant (SCts), 37° C, 2 h
[5] = In vitro plasma stability, human plasma; type: in vitro ADME; set-up: dose or concentration left out as unconfirmed; settings: Human PLM, 37° C.

AUC(0-t) ([1]; IV, 0.05 mg/kg)	half-life ([1]; IV, 0.05 mg/kg)	Tmax ([1]; SC, 0.1 mg/kg)	half-life ([1]; SC, 0.1 mg/kg)	EC50 (human CRF2a receptor)	Buffer stability pH 7.4 % purity loss [2]	remaining at 2 h ([3]; male, Sprague Dawley, plasma)	remaining at 2 h [4]	remaining at 2 h [5]	Buffer stability pH 4.5 % purity loss [2]	% remaining at 2 hours [3]	SMILES	Systolic blood pressure (Mean) % change from baseline, 8 h (Sprague Dawley rats)	Systolic blood pressure (Mean) % change from baseline, 12 h (Sprague Dawley rats)	Systolic blood pressure (Mean) % change from baseline, 24 h (Sprague Dawley rats)	Duration of action (Sprague Dawley rats)
3880 ng·h/mL	4.8 h	5 h	5 h	0.3 nM	0/nd ^ %	95%	77%	97%	–	–	CC[C@H](C)[C@H](NC(C)=O)C(=O)N[C@H](C(=O)N[C@@H](CC(C)C)C(=O)N[C@@H](CO)C(=O)N[C@@H](CC(C)C)C(=O)N[C@@H](CC(=O)O)C(=O)N[C@@H](C(=O)N1CCC[C@H]1C(=O)N[C@H](C(=O)N[C@@H](CCCCN)C(=O)N[C@@](C)(CC(C)C)C(=O)N[C@@H](CCCCNC(=O)COCCOCCNC(=O)COCCOCCNC(=O)CC[C@H](NC(=O)CCCCCCCCCCCCCCCCC(=O)O)C(=O)O)C(=O)N[C@@H](CCCCN)C(=O)N[C@H](C(=O)N[C@@H](CC(C)C)C(=O)N[C@@H](CC(C)C)C(=O)N[C@@H](CCC(=O)O)C(=O)N[C@@H](CCC(N)=O)C(=O)N[C@@H](CCC(=O)O)C(=O)N[C@@H](CCCCN)C(=O)N[C@@H](CCC(N)=O)C(=O)N[C@@H](CCCCN)C(=O)N[C@@H](CCCCN)C(=O)N[C@@H](CCC(N)=O)C(=O)N[C@@H](CCCNC(=N)N)C(=O)N[C@@H](CCC(=O)O)C(=O)N[C@@H](CCC(N)=O)C(=O)N[C@@H](C)C(=O)N[C@@H](CCC(=O)O)C(=O)N[C@H](C(=O)N[C@@H](CC(N)=O)C(=O)NC(C)(C)C(=O)N[C@@H](CCC(N)=O)C(=O)N[C@H](C(=O)N[C@@H](CC(C)C)C(=O)N[C@@H](C)C(=O)N[C@@H](CCC(N)=O)C(=O)N[C@H](C(N)=O)C(C)C)[C@@H](C)CC)[C@@H](C)O)[C@@H](C)CC)[C@@H](C)CC)C(C)C)C(C)C [compound 110] (Ac-IVLSLD[dV]PIK[αMeL]K([AEEA-AEEA-γGlu-C18 diacid])KILLEQEKQKKQREQAETN[Aib]QILAQV-NH2)	−19%	−10%	−6%	20 h
3900 ng·h/mL	5.2 h	8 h	5.2 h	0.6 nM	0/0 ^ %	–	–	91%	0/0 ^ %	128%	CC[C@H](C)[C@H](NC)C(=O)N[C@H](C(=O)N[C@@H](CC(C)C)C(=O)N[C@@H](CO)C(=O)N[C@@H](CC(C)C)C(=O)N[C@@H](CC(=O)O)C(=O)N[C@@H](C(=O)N1CCC[C@H]1C(=O)N[C@H](C(=O)N[C@@H](CCCCN)C(=O)N[C@@H](CC(C)C)C(=O)N[C@@H](CCCCNC(=O)COCCOCCNC(=O)COCCOCCNC(=O)CC[C@H](NC(=O)CCCCCCCCCCCCCCCCC(=O)O)C(=O)O)C(=O)N[C@@H](CCCCN)C(=O)N[C@H](C(=O)N[C@@H](CC(C)C)C(=O)N[C@@H](CC(C)C)C(=O)N[C@@H](CCC(=O)O)C(=O)N[C@@H](CCC(N)=O)C(=O)N[C@@H](CCC(=O)O)C(=O)N[C@@H](CCCCN)C(=O)N[C@@H](CCC(N)=O)C(=O)N[C@@H](CCCCN)C(=O)N[C@@H](CCCCN)C(=O)N[C@@H](CCC(N)=O)C(=O)N[C@@H](CCCNC(=N)N)C(=O)N[C@@H](CCC(=O)O)C(=O)N[C@@H](CCC(N)=O)C(=O)N[C@@H](C)C(=O)N[C@@H](CCC(=O)O)C(=O)N[C@H](C(=O)N[C@@H](CC(N)=O)C(=O)NC(C)(C)C(=O)N[C@@H](CCC(N)=O)C(=O)N[C@H](C(=O)N[C@@H](CC(C)C)C(=O)N[C@@H](C)C(=O)N[C@@H](CCC(N)=O)C(=O)N[C@H](C(N)=O)C(C)C)[C@@H](C)CC)[C@@H](C)O)[C@@H](C)CC)[C@@H](C)CC)C(C)C)C(C)C [compound 118] (H-[NMeI]VLSLD[dV]PIKLK([AEEA-AEEA-γGlu-C18 diacid])KILLEQEKQKKQREQAETN[Aib]QILAQV-NH2)	−24%	−17%	−4%	>24 h
8100 ng·h/mL	8 h	8 h	8 h	0.11 nM	0.0/0.0 ^ %	–	73%	–	0.0/0.0 ^ %	–	CC[C@H](C)[C@H](NC(C)=O)C(=O)N[C@H](C(=O)N[C@@H](CC(C)C)C(=O)N[C@@H](CO)C(=O)N[C@@H](CC(C)C)C(=O)N[C@@H](CC(=O)O)C(=O)N[C@@H](C(=O)N1CCC[C@H]1C(=O)N[C@H](C(=O)N[C@@H](CCCCN)C(=O)N[C@@H](CC(C)C)C(=O)N[C@@H](CCCCNC(=O)CC[C@H](NC(=O)CCCCCCCCCCCCCCCCCCC(=O)O)C(=O)O)C(=O)N[C@@H](CCCCN)C(=O)N[C@H](C(=O)N[C@@H](CC(C)C)C(=O)N[C@@H](CC(C)C)C(=O)N[C@@H](CCC(=O)O)C(=O)N[C@@H](CCC(N)=O)C(=O)N[C@@H](CCC(=O)O)C(=O)N[C@@H](CCCCN)C(=O)N[C@@H](CCC(N)=O)C(=O)N[C@@H](CCCCN)C(=O)N[C@@H](CCCCN)C(=O)N[C@@H](CCC(N)=O)C(=O)N[C@@H](CCCNC(=N)N)C(=O)N[C@@H](CCC(=O)O)C(=O)N[C@@H](CCC(N)=O)C(=O)N[C@@H](C)C(=O)N[C@@H](CCC(=O)O)C(=O)N[C@H](C(=O)N[C@@H](CC(N)=O)C(=O)NC(C)(C)C(=O)N[C@@H](CCC(N)=O)C(=O)N[C@H](C(=O)N[C@@H](CC(C)C)C(=O)N[C@@H](C)C(=O)N[C@@H](CCC(N)=O)C(=O)N[C@H](C(N)=O)C(C)C)[C@@H](C)CC)[C@@H](C)O)[C@@H](C)CC)[C@@H](C)CC)C(C)C)C(C)C [compound 206] (Ac-IVLSLD[dV]PIKLK([γGlu-C20 diacid])KILLEQEKQKKQREQAETN[Aib]QILAQV-NH2)	−12%	−16%	−13%	>24 h
7320 ng·h/mL	8 h	7 h	10 h	0.12 nM	0.0/Not Tested %	–	84%	–	–	–	CC[C@H](C)[C@H](NC)C(=O)N[C@H](C(=O)N[C@@H](CC(C)C)C(=O)N[C@@H](CO)C(=O)N[C@@H](CC(C)C)C(=O)N[C@@H](CC(=O)O)C(=O)N[C@@H](C(=O)N1CCC[C@H]1C(=O)N[C@H](C(=O)N[C@@H](CCCCN)C(=O)N[C@@H](CC(C)C)C(=O)N[C@@H](CCCCNC(=O)CC[C@H](NC(=O)CCCCCCCCCCCCCCCCCCC(=O)O)C(=O)O)C(=O)N[C@@H](CCCCN)C(=O)N[C@H](C(=O)N[C@@H](CC(C)C)C(=O)N[C@@H](CC(C)C)C(=O)N[C@@H](CCC(=O)O)C(=O)N[C@@H](CCC(N)=O)C(=O)N[C@@H](CCC(=O)O)C(=O)N[C@@H](CCCCN)C(=O)N[C@@H](CCC(N)=O)C(=O)N[C@@H](CCCCN)C(=O)NC(C)(C)C(=O)N[C@@H](CCC(N)=O)C(=O)N[C@@H](CCCNC(=N)N)C(=O)N[C@@H](CCC(=O)O)C(=O)N[C@@H](CCC(N)=O)C(=O)N[C@@H](C)C(=O)N[C@@H](CCC(=O)O)C(=O)N[C@H](C(=O)N[C@@H](CC(N)=O)C(=O)NC(C)(C)C(=O)N[C@@H](CCC(N)=O)C(=O)N[C@H](C(=O)N[C@@H](CC(C)C)C(=O)N[C@@H](C)C(=O)N[C@@H](CCC(N)=O)C(=O)N[C@H](C(N)=O)C(C)C)[C@@H](C)CC)[C@@H](C)O)[C@@H](C)CC)[C@@H](C)CC)C(C)C)C(C)C [compound 215] (H-[NMeI]VLSLD[dV]PIKLK([γGlu-C20 diacid])KILLEQEKQK[Aib]QREQAETN[Aib]QILAQV-NH2)	−12%	−14%	−16%	>24 h
